Holding throughout (assay): KINOMEscan
What all share (type): binding
What all share (conditions): read-out: % control activity remaining

One assay has as its target T1, PRKD2 (Homo sapiens, UniProt Q9BZL6).
T1 construct: purchased Eurofins DiscoverX KINOMEscan
T1 sequence (Q9BZL6 1-878): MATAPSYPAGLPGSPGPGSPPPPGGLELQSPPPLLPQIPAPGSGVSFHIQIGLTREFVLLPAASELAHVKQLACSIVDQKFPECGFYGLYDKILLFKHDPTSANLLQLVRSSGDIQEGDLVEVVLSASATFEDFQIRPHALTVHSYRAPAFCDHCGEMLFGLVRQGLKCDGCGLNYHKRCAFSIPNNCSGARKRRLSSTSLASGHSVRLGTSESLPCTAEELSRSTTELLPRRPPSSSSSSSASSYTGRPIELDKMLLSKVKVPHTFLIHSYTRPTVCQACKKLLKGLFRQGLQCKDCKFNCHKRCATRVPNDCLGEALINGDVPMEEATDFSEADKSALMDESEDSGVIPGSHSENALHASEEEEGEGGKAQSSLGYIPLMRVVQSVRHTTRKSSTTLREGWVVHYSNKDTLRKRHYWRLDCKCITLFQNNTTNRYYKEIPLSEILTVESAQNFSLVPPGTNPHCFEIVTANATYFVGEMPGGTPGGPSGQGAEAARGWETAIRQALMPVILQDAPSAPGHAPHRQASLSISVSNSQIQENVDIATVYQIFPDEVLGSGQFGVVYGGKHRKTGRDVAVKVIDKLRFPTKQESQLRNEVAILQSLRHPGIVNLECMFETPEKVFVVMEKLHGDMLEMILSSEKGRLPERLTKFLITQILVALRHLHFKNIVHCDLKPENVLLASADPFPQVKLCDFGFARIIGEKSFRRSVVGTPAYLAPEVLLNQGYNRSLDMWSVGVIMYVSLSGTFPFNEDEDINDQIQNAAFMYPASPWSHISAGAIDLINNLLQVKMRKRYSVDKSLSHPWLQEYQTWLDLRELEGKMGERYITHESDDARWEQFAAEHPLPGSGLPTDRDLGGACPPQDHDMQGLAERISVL

In a further assay the target is T2, LATS2 (Homo sapiens, UniProt Q9NRM7).
T2 construct: purchased Eurofins DiscoverX KINOMEscan
T2 sequence (Q9NRM7 1-1088): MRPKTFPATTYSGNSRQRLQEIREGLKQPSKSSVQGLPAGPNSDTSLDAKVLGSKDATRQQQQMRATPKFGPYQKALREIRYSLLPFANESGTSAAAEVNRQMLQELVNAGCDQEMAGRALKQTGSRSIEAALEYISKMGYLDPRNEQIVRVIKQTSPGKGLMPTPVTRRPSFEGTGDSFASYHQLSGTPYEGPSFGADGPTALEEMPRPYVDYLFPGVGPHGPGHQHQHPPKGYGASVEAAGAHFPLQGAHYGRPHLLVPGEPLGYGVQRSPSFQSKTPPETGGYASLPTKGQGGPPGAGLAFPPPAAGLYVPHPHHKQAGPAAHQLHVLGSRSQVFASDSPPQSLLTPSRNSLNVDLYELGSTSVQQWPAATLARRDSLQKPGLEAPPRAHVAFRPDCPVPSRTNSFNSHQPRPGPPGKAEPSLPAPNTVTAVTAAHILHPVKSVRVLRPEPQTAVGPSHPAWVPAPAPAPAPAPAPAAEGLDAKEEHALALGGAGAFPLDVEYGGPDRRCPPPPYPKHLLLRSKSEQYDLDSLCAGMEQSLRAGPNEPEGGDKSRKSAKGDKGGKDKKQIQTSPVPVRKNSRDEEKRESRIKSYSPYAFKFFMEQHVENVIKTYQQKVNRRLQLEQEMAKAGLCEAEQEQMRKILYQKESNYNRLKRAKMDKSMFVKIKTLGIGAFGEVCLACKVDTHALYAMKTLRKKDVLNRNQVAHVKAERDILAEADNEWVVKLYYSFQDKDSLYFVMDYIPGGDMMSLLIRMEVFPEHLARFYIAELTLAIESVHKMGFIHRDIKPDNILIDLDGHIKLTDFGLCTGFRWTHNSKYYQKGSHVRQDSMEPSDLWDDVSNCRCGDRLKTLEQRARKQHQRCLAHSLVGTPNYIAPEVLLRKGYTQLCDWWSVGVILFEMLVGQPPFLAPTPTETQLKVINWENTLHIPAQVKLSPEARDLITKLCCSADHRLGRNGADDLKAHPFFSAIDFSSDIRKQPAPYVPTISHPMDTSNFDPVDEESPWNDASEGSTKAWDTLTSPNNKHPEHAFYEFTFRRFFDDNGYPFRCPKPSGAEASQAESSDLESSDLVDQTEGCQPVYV

The target of another assay is T3, PIP5K2C (Homo sapiens, UniProt Q8TBX8).
T3 construct: purchased Eurofins DiscoverX KINOMEscan
T3 sequence (Q8TBX8 1-421): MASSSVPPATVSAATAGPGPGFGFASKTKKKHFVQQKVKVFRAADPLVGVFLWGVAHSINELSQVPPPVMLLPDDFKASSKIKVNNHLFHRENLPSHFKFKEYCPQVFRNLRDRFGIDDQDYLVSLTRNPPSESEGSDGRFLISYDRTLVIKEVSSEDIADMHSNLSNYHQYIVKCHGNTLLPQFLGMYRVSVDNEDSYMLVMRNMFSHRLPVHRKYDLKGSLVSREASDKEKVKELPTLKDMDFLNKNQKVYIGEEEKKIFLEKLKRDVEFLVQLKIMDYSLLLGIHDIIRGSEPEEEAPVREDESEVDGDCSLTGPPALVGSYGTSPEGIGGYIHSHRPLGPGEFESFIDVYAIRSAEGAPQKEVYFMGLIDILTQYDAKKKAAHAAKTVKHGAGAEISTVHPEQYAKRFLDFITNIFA

Another assay concerns the target T4, RIOK1 (Homo sapiens, UniProt Q9BRS2).
T4 construct: purchased Eurofins DiscoverX KINOMEscan
T4 sequence (Q9BRS2 1-568): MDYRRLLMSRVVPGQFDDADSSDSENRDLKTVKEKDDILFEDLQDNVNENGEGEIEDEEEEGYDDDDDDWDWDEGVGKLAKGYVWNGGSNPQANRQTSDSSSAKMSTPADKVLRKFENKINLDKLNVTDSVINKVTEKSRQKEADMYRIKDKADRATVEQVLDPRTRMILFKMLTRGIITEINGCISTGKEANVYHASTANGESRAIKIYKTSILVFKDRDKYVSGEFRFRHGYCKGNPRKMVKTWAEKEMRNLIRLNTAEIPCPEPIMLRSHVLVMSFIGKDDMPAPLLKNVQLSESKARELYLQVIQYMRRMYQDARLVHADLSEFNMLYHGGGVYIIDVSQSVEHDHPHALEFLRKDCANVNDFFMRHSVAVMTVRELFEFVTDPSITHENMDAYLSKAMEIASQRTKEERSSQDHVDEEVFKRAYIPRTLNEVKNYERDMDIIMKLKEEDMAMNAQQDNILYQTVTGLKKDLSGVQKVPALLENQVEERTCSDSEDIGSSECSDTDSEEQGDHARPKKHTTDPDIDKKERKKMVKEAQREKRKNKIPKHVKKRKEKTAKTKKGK

For another assay, the target named is T5, PAK7 (Homo sapiens, UniProt Q9P286).
T5 construct: purchased Eurofins DiscoverX KINOMEscan

Each structure is given as a SMILES string.

T5 sequence (Q9P286 whole entry): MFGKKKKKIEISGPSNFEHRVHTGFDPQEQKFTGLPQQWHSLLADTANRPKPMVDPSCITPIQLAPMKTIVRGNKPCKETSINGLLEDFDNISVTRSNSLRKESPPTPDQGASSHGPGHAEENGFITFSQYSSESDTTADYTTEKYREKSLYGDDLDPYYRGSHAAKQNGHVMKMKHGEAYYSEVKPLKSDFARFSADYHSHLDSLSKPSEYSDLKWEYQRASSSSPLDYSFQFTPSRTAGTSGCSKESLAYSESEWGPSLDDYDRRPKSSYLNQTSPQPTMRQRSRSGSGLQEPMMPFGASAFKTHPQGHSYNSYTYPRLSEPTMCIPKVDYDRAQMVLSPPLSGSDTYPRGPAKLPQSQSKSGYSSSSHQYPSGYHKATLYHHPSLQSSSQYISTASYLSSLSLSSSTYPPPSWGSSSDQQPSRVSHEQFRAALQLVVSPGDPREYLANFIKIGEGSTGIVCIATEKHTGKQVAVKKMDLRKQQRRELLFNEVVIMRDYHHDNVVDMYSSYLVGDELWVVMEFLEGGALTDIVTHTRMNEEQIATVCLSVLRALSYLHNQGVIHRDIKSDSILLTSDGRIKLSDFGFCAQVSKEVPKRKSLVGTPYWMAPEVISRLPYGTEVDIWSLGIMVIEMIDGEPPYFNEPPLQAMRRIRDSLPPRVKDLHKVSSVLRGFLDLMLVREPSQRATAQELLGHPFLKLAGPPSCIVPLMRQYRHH

With `Clc1cc(NCC2CC2)c2ncc(-c3ccc4[nH]ncc4c3)n2n1` [compound 2, 6-Chloro-N-(cyclopropylmethyl)-3-(1H-indazol-5-yl)imidazo[1,2-b]pyridazin-8-amine], the remaining binding at 1 µM turned out to be 100% at PRKD2; 58% on LATS2; 67% at PIP5K2C; 35% at RIOK1; 98% on PAK7.

For the compound `O=C(CN1CCOCC1)N[C@H]1CC[C@H](Nc2cc(Cl)nn3c(-c4ccc5[nH]ncc5c4)cnc23)CC1` [compound 26], the remaining binding at 1 µM was determined as 100% at PRKD2; 73% at LATS2; 93% on PIP5K2C; 33% at RIOK1; 93% on PAK7.

In the case of `CN1CCC(CNc2cc(Cl)nn3c(-c4cc5nc(Nc6ccccc6)[nH]c5cc4F)cnc23)CC1` [compound 31, 6-Chloro-3-(6-fluoro-2-(phenylamino)-1H-benzo[d]imidazol-5-yl)-N-((1-methylpiperidin-4-yl)methyl)imidazo[1,2-b]pyridazin-8-amine], the remaining binding at 1 µM at PRKD2 was determined as 93%; at LATS2 it was 94%; on PIP5K2C, 100%; on RIOK1, 88%; at PAK7, 95%.

(Values after PMC6437697 (Journal of Medicinal Chemistry, 2019).)
